1 molecule from patent US7439251B2, “Methods and compositions for treatment of central and peripheral nervous system disorders and novel compounds useful therefor” (Israel Institute for Biological Research, priority 2002, dated 2008) can be followed below.

In series [1] the target is CYP1A2 (Homo sapiens, UniProt P05177). Briefly: P450 inhibition, microtiter plate. The series is classed as in vitro ADME. The following applies: up to 10 μM. How it is done:
(§1) Cytochrome P450 activity can be an indicator for potential drug-drug interactions. AF292 was evaluated in a microtiter plate assay for P450 inhibition.

Series [2] deals with CYP2C9 (Homo sapiens, UniProt P11712). Briefly: P450 inhibition, microtiter plate. The format is in vitro ADME. The following applies: up to 10 μM. How it is done:
as §1

CYP2C9, sequence (P11712 whole entry): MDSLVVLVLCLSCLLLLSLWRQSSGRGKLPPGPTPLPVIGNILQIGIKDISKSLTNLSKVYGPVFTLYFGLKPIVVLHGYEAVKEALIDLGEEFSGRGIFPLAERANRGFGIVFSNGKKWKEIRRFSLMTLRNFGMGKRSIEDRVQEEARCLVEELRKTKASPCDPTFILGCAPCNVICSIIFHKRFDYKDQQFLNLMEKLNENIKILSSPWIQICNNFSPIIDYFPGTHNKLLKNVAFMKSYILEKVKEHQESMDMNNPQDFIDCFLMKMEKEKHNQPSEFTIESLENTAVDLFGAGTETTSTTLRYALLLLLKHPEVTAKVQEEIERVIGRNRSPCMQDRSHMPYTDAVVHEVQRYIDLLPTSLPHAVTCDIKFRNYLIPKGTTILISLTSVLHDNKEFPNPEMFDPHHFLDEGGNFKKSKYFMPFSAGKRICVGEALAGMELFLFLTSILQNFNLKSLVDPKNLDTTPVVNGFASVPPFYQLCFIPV
CYP1A2, sequence (P05177 whole entry): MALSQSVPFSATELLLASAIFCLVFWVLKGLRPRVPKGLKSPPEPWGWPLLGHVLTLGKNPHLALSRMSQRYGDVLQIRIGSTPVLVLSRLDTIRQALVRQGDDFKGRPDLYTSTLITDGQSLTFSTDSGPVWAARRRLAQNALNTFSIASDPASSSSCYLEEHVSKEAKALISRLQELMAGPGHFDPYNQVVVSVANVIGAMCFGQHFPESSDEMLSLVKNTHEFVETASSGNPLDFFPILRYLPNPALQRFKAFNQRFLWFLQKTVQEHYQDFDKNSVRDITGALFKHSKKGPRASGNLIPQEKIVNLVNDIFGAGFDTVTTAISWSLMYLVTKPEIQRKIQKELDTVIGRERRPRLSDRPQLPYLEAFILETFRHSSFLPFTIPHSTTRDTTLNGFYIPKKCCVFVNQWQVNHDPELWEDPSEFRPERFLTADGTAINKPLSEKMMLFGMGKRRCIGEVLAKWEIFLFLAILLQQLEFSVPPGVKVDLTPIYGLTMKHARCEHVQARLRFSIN

In the case of `CC[C@@H]1SC2(CCNCC2)NC1=O` [AF292, (S)-2-Ethyl-1-thia-4,8-diaza-spiro[4.5]decan-3-one], the P450 inhibition result in series [1] and in series [2] was “did not induce significant” each time.
